Converted amounts (≈) assume the structure as drawn. Where two headings read alike, the source gives them in different places.
What was measured:
[1] = system: MU50 multidrug-resistant Staphylococcus aureus strain (MRSA); assay: Minimum inhibitory concentration (MIC) on MU50; assay type: cell-based
From the text: For some of the experimental tests MU50 bacteria were used. MU50 is a multidrug-resistant Staphylococcus aureus strain (MRSA). MRSA are bacteria which have naturally evolved under antibiotic selection pressure and which are known to be resistant to antibiotics including penicillins (methicillin, dicloxacillin, nafcillin, oxacillin, etc.) and cephalosporins. MU50 is additionally resistant to macrolides, quinolones and aminoglycosides.
The minimum inhibitory concentration (MIC), which inhibits the visible growth of a microorganism after an overnight incubation was determined for the following antibiotics: […]

[2] = system: MU 50 multi-resistant bacteria; assay: Experiment 7: growth of MU50 after pulsed 400 nm photo-activation of antibiotics; assay type: cell-based, Staphylococcus aureus
Description: (§1) In Experiments 7 to 9 the effect of some exemplary photo-activated antibiotics is tested on two different multi resistant bacterial strains:
In Experiment 7 MU 50 multi-resistant bacteria as described above for Experiments 1 to 3 were tested.
(§2) G→Pulse ON 5 ms energy 0.05 J, OFF 45 ms during 10 minutes
(§3) The following experimental procedure are the same for experiments 7, 8 and 9: The bacterial cells were grown in Mueller Hinton Broth in the presence of an antibiotic at a concentration according to the table below until they reached turbidity of 1 according to the McFarland Standard (=3×10^8 bacteria/ml):
(§4) For each antibiotic two patterns of pulsed exposure for photo-activation were applied and a control without exposure to radiation. For example in experiment 7 and 8, pulse ON 10 ms energy 0.1 J, OFF 90 ms during 10 minutes and pulse ON 5 ms energy 0.05 J, OFF 45 ms i.e. in both treatments a 10% ON and a 90% OFF pattern and both for a duration of 10 minutes.
(§5) Incubation for 2 to up 36 hours at 37° C. until time=t2
(§6) At time=t2 one of the antibiotics is added to obtain the same concentration of antibiotic as during the original growth phase prior to time t1=0 as listed in the table above.
(§7) Incubation for further 2 to 4 hours at 37° C. in the presence of antibiotic until time=t3.
(§8) The absorbance value correlates to the colloidal effect and the number of bacteria in the sample.
(§9) These tables below list for each bacterial sample the difference in absorption values representing the difference in the number of bacteria present in each sample by subtracting the absorption values at time t4, which is the last measurement of the growth curve presented in FIGS. 3 to 5 from the last absorption value before the treatment with light at time t3. The values of A and G represent the effect of the treatment of the bacterial samples with two different light patterns for activation of the antibiotic as described above. The values of D correspond to the control samples without photo-activation of the antibiotic: […]

[3] = system: PA01 Pseudamonas aeruginosa MultiR genetically modified bacteria; assay: Experiment 8: growth of PA01 after pulsed 400 nm photo-activation of antibiotics; assay type: cell-based; details: antibiotic concentration per the 12th table
Description: as §1
(§10) In Experiment 8 and 9 PA01 Pseudamonas aeruginosa MultiR genetically modified bacteria were tested. This PA01 strain is genetically modified with a quinolone pump and conferring resistance to antibiotics of the quinolone group of antibiotics.
as §2, §3, §4, §5, §6, §7, §8, §9

[4] = system: PA01 Pseudamonas aeruginosa MultiR genetically modified bacteria; assay: Experiment 9: growth of PA01 after pulsed 400 nm photo-activation, shorter pulses; assay type: cell-based; details: antibiotic concentration per the 13th table
Description: as §1, §10
A→Pulse ON 3 ms energy 0.03 J, OFF 27 ms during 10 minutes
G→Pulse ON 1 ms energy 0.01 J, OFF 9 ms during 10 minutes
as §3, §4, §5, §6, §7, §8, §9

Acinetobacter = assay: Experiment 12: replication on antibiotic agar after pulsed 400 nm irradiation; assay type: cell-based; details: 24 hours incubation
Description: (§11) 15′000′000 multi-resistant bacteriae (0.050 ml of a McFarland of 1) were put on 40 mm diameter petri dishes. The petri dishes comprised MH agar with or without antibiotic.
(§12) […]. The LED power during 0.02 ms was measured to be 0.63 W on a Thorlabs power sensor with a surface area of 2.2×2.2 mm representing a power of 13 mW/cm^2.

Pseudomonas aeruginosa = assay: as above; assay type: cell-based; details: 24 hours incubation
Description: as §11, §12

[5] = system: Staphylococcus aureus MU500; assay: as above; assay type: cell-based; details: 24 hours incubation
Description: as §11
The LED power during 0.02 ms was measured to be 0.63 W on a Thorlabs power sensor with a surface area of 2.2×2.2 mm representing a power of 13 mW/cm^2.

[6] = A: 400 nm LED pulse ON 10 ms energy 0.1 J, OFF 90 ms during 10 minutes
[7] = G: 400 nm LED pulse ON 5 ms energy 0.05 J, OFF 45 ms during 10 minutes
[8] = A: 400 nm LED pulse ON 3 ms energy 0.03 J, OFF 27 ms during 10 minutes
[9] = G: 400 nm LED pulse ON 1 ms energy 0.01 J, OFF 9 ms during 10 minutes
[10] = antibiotic 10 mg/l in MH agar, no irradiation
[11] = antibiotic 10 mg/l, 400 nm LED pulses 0.02 ms, 1 kHz, 10 minutes

Row | Compound | difference in absorption values (595-600 nm) between t4 and t3 [2] | difference in absorption values (595-600 nm) between t4 and t3 ([2]; 10 min) | difference in absorption values (595-600 nm) between t4 and t3 ([2]; 10 h) | difference in absorption values (595-600 nm) between t4 and t3 [3, 6] | difference in absorption values (595-600 nm) between t4 and t3 ([3]; D: control no pulse) | difference in absorption values (595-600 nm) between t4 and t3 [3, 7] | difference in absorption values (595-600 nm) between t4 and t3 [4, 8] | difference in absorption values (595-600 nm) between t4 and t3 ([4]; D: control no pulse) | difference in absorption values (595-600 nm) between t4 and t3 [4, 9] | other results
1 | Cc1onc(-c2ccccc2)c1C(=O)N[C@@H]1C(=O)N2[C@@H]1SC(C)(C)[C@@H]2C(=O)O [Oxacillin] | – | – | – | – | – | – | – | – | – | MIC ([1]; Staphylococcus aureus, MRSA, overnight incubation, read-out: MIC): > 32 µg/mL
2 | Teicopanin | – | – | – | – | – | – | – | – | – | MIC ([1]; overnight incubation): 8 µg/mL
3 | CO[C@H]1/C=C/O[C@@]2(C)Oc3c(C)c(O)c4c(O)c(c(/C=N/N5CCN(C)CC5)c(O)c4c3C2=O)NC(=O)/C(C)=C\C=C\[C@H](C)[C@H](O)[C@@H](C)[C@@H](O)[C@@H](C)[C@H](OC(C)=O)[C@@H]1C [Rifampicin] | −0.0542 | −0.0914 | −0.1027 | 0.0137 | 0.0679 | −0.0678 | −0.0808 | 0.0562 | −0.0196 | –
4 | CC[C@H]1OC(=O)[C@H](C)[C@@H](O[C@H]2C[C@@](C)(OC)[C@@H](O)[C@H](C)O2)[C@H](C)[C@@H](O[C@@H]2O[C@H](C)C[C@H](N(C)C)[C@H]2O)[C@](C)(OC)C[C@@H](C)C(=O)[C@H](C)[C@@H](O)[C@]1(C)O [Clarithromycin] | 0.0956 | −0.1383 | −0.1249 | 0.0106 | 0.1041 | −0.0396 | −0.1708 | −0.0024 | −0.0994 | C: Acinetobacter (no irradiation), replication (Acinetobacter; [10]): R (Bacteria can replicate after the treatment); D Acinetobacter (irradiation), replication (Acinetobacter; [11]): R (Bacteria can replicate after the treatment); A: Pseudomonas aeruginosa (no irradiation), replication (Pseudomonas aeruginosa; [10]): R (Bacteria can replicate after the treatment); B: Pseudomonas aeruginosa (irradiation), replication (Pseudomonas aeruginosa; [11]): PR (Bacteria can replicate partially); E: Staphylococcus aureus MU500 (no irradiation), replication [5, 10]: R (Bacteria can replicate after the treatment); F: Staphylococcus aureus MU500 (irradiation), replication [5, 11]: R (Bacteria can replicate after the treatment)
5 | CN[C@H](CC(C)C)C(=O)N[C@H]1C(=O)N[C@@H](CC(N)=O)C(=O)N[C@H]2C(=O)N[C@H]3C(=O)N[C@H](C(=O)N[C@H](C(=O)O)c4cc(O)cc(O)c4-c4cc3ccc4O)[C@H](O)c3ccc(c(Cl)c3)Oc3cc2cc(c3O[C@@H]2O[C@H](CO)[C@@H](O)[C@H](O)[C@H]2O[C@H]2C[C@](C)(N)[C@H](O)[C@H](C)O2)Oc2ccc(cc2Cl)[C@H]1O [Vancomycin] | – | – | – | – | – | – | – | – | – | MIC ([1]; Staphylococcus aureus, MRSA): 8 µg/mL (≈ 5.52 µM)

Reference: patent publication US20160120979A1, “METHOD OF APPLYING A COMPOSITION AND PHARMACEUTICAL COMPOSITION WITH A REGIMEN OF ADMINISTERING IT” (priority 2013, published 2016)
